Values quoted from earlier work, collected in publication PMC6572427, “Peptosome Coadministration Improves Nanoparticle Delivery to Tumors through NRP1-Mediated Co-Endocytosis” (Biomolecules, 2019).

Conditions: in vivo
Source text: Therefore, its fluorescence signal can be used to reflect the integrity of peptosomes and estimate the in vivo plasma stability. […] Blood was then collected at different time points after the injection as described in the methods, and the fluorescence signals were detected using an IVIS Spectrum in vivo ...

CRGDKGPDC [iRGD]
plasma half-life: eight
